We go through 22 compounds from US9216957B2, “Androgen receptor antagonists and uses thereof” (SUZHOU KINTOR PHARMACEUTICALS, INC., priority 2011, dated 2015).

One experiment deals with Prostate-specific antigen (PSA) production in LNCaP cells. As to the kind of experiment: PSA Assay (inhibition of PSA production in prostate cancer cells, ELISA). Type of experiment: cell-based, human. As to conditions: Homo sapiens, LNCaP, 72 h, read-out: LNCAP IC50 (uM), inhibition of PSA production, LNCaP cells, R1881 1 ng/ml, three days, seven point assay. The procedure:
PSA Assay (Inhibition Test of the Compound of the Present Invention on Prostate-Specific Antigen (PSA) Production in Various Prostate Cancer Cells).
Androgen dependent LNCaP cells were purchased from the American Type Culture Collection (ATCC, Manassas, Va.). These cells were grown in RPMI 1640 medium supplemented with 10% fetal bovine serum (FBS), 100 U/mL penicillin, 100 μg/mL streptomycin, and 0.25 μg/mL amphotericin B. The cells were maintained at 37° C. and 5% CO2. LNCaP cells between passage 20 and 35 were used for experiments. LNCaP is a hormone sensitive cell line. For the PSA assay, human prostate cancer cells LNCaP were seeded in a 96-well plate at a concentration of 5000 cells/100 μl/well. On the following day, Methyltrienolone (R1881, AR agonist) (final concentration 1 ng/ml), test compounds or bicalutamide (Casodex®, AstraZeneca) (final concentration 0.005 to 20 μM) were added. Three days after the addition, the concentration of PSA in the supernatant of the culture solution was measured by ELISA. ELISAs for human PSA in culture medium were performed using the ultra-sensitive assay procedure and reagents in the Active™ PSA assay kit (Diagnostic Systems Laboratories Inc., Webster, Tex.). Culture medium and standards (200 μl/well) were incubated in antibody-coated plates for 2 h at room temperature on a Titer plate shaker at 500-600 rpm. Wells were then washed five times. The HRP conjugate was diluted 1:20 with assay buffer, and 100 μl was added to all wells. The plates were incubated for 30 min at room temperature on the shaker and washed as before, and 100 μl TMB (3,3′,5,5′-tetramethylbenzidine, 0.4 g/l) was added. The plates were incubated for 10 min on the shaker, and the reaction was terminated with 100 μl stop solution. The plates were read using a plate reader at 450 nm with a 650 nm reference filter. PSA levels were normalized for differences in growth of LNCaP cells following various treatments as determined by the MTS assay. IC50 of PSA was calculated based on a seven point assay (concentrations of tested compound) and expressed as micromolar (uM).
For `CNC(=O)CCCc1ccc(N2C(=S)N(c3ccc(C#N)c(C(F)(F)F)c3F)C(=O)C2(C)C)cc1` [Example 5, 4-(4-(3-(4-cyano-2-fluoro-3-(trifluoromethyl)phenyl)-5,5-dimethyl-4-oxo-2-thioxoimidazolidin-1-yl)phenyl)-N-methylbutanamide], the IC50 worked out at 0.37 µM.
Take `CC1(C)C(=O)N(c2ccc(C#N)c(Cl)c2F)C(=S)N1c1ccc(CCCC#N)cc1` [Example 41, 2-chloro-4-(3-(4-(3-cyanopropyl)phenyl)-4,4-dimethyl-5-oxo-2-thioxoimidazolidin-1-yl)-3-fluorobenzonitrile]: the IC50 amounted to 0.32 µM.
On to `COc1c(C#N)ccc(N2C(=O)C(C)(C)N(c3ccc(CCCC#N)nc3)C2=S)c1F` [Example 39, 4-(3-(6-(3-cyanopropyl)pyridin-3-yl)-4,4-dimethyl-5-oxo-2-thioxoimidazolidin-1-yl)-3-fluoro-2-methoxybenzonitrile], for which the IC50 came out at 0.75 µM.
With `CC1(C)C(=O)N(c2ccc(C#N)c(C(F)(F)F)c2F)C(=S)N1c1ccc(CCCC#N)c(F)c1` [Example 28, 4-(3-(4-(3-cyanopropyl)-3-fluorophenyl)-4,4-dimethyl-5-oxo-2-thioxoimidazolidin-1-yl)-3-fluoro-2-(trifluoromethyl)benzonitrile], the IC50 came to 0.11 µM.
With `CC1(C)C(=O)N(c2ccc(C#N)c(Cl)c2F)C(=S)N1c1ccc(CCCC(N)=O)cc1` [Example 9, 4-(4-(3-(3-chloro-4-cyano-2-fluorophenyl)-5,5-dimethyl-4-oxo-2-thioxoimidazolidin-1-yl)phenyl)butanamide], the IC50 was found to be 0.59 µM.
With `CNC(=O)CCOc1ccc(N2C(=S)N(c3ccc(C#N)c(C(F)(F)F)c3F)C(=O)C2(C)C)cc1` [Example 15, 3-(4-(3-(4-cyano-2-fluoro-3-(trifluoromethyl)phenyl)-5,5-dimethyl-4-oxo-2-thioxoimidazolidin-1-yl)phenoxy)-N-methylpropanamide], the IC50 was found to be 0.45 µM.
For the compound `CC1(C)C(=O)N(c2ccc(C#N)c(C(F)(F)F)c2F)C(=S)N1c1ccc(CCCC(N)=O)cc1` [Example 8, 4-(4-(3-(4-cyano-2-fluoro-3-(trifluoromethyl)phenyl)-5,5-dimethyl-4-oxo-2-thioxoimidazolidin-1-yl)phenyl)butanamide], the IC50 is 0.43 µM.
Turning to `CNC(=O)C(C)(C)CCc1ccc(N2C(=S)N(c3ccc(C#N)c(OC)c3F)C(=O)C2(C)C)cc1` [Example 23, 4-{4-[3-(4-Cyano-2-fluoro-3-methoxy-phenyl)-5,5-dimethyl-4-oxo-2-thioxo-imidazolidin-1-yl]-phenyl}-2,2,N-trimethyl-butyramide], the IC50 is 0.89 µM.
In the case of `CC1(C)C(=O)N(c2ccc(C#N)c(C(F)(F)F)c2)C(=S)N1c1ccc(CCCC#N)nc1` [Example 38, 4-(3-(6-(3-cyanopropyl)pyridin-3-yl)-4,4-dimethyl-5-oxo-2-thioxoimidazolidin-1-yl)-2-(trifluoromethyl)benzonitrile], the IC50 amounted to 0.52 µM.
`CC1(C)C(=O)N(c2ccc(C#N)c(C(F)(F)F)c2F)C(=S)N1c1ccc(CCCC(=O)N2CCOCC2)c(F)c1` [Example 58, 3-fluoro-4-(3-(3-fluoro-4-(4-morpholino-4-oxobutyl)phenyl)-4,4-dimethyl-5-oxo-2-thioxoimidazolidin-1-yl)-2-(trifluoromethyl)benzonitrile]: the IC50 was found to be 0.53 µM.
In the case of `CNC(=O)CCCc1ccc(N2C(=S)N(c3cc(C(F)(F)F)c(C#N)cc3F)C(=O)C2(C)C)cc1F` [Example 45, 4-(4-(3-(4-cyano-2-fluoro-5-(trifluoromethyl)phenyl)-5,5-dimethyl-4-oxo-2-thioxoimidazolidin-1-yl)-2-fluorophenyl)-N-methylbutanamide], the IC50 was determined as 2.05 µM.
Still for that read-out and setting: the result for `COc1c(C#N)ccc(N2C(=O)C(C)(C)N(c3ccc(CCCC#N)c(F)c3)C2=S)c1F` [Example 30, 4-(3-(4-(3-cyanopropyl)-3-fluorophenyl)-4,4-dimethyl-5-oxo-2-thioxoimidazolidin-1-yl)-3-fluoro-2-methoxybenzonitrile] reads 0.29 µM; that for `COc1cc(N2C(=O)C(C)(C)N(c3ccc(CCCc4nccs4)nc3)C2=S)ccc1C#N` [Example 69, 4-(4,4-dimethyl-5-oxo-3-(6-(3-(thiazol-2-yl)propyl)pyridin-3-yl)-2-thioxoimidazolidin-1-yl)-2-methoxybenzonitrile], 0.68 µM; that for `CNC(=O)CCCc1ccc(N2C(=S)N(c3ccc(C#N)c(C(F)(F)F)c3F)C(=O)C23CCC3)cc1` [Example 10, 4-(4-(7-(4-cyano-2-fluoro-3-(trifluoromethyl)phenyl)-8-oxo-6-thioxo-5,7-diazaspiro[3.4]octan-5-yl)phenyl)-N-methylbutanamide], 0.42 µM.
Consider `N#Cc1ccc(N2C(=O)C3(CCC3)N(c3ccc(CCCc4ncco4)nc3)C2=S)c(F)c1C(F)(F)F` [Example 65, 3-Fluoro-4-{5-[6-(3-oxazol-2-yl-propyl)-pyridin-3-yl]-8-oxo-6-thioxo-5,7-diaza-spiro[3.4]oct-7-yl}-2-trifluoromethyl-benzonitrile], for which the IC50 was determined as 0.6 µM.
As to `N#CCCCc1ccc(N2C(=S)N(c3ccc(C#N)c(C(F)(F)F)c3F)C(=O)C23CCC3)cc1` [Example 42, 4-(5-(4-(3-cyanopropyl)phenyl)-8-oxo-6-thioxo-5,7-diazaspiro[3.4]octan-7-yl)-3-fluoro-2-(trifluoromethyl)benzonitrile], the IC50 worked out at 0.85 µM.
Regarding `CC1(C)C(=O)N(c2ccc(C#N)c(C(F)(F)F)c2F)C(=S)N1c1ccc(CCCc2ncco2)nc1` [Example 63, 4-{4,4-Dimethyl-3-[6-(3-oxazol-2-yl-propyl)-pyridin-3-yl]-5-oxo-2-thioxo-imidazolidin-1-yl}-3-fluoro-2-trifluoromethyl-benzonitrile], the IC50 is 0.1 µM.
Turning to `COC(=O)CCc1ccc(N2C(=S)N(c3ccc(C#N)c(C(F)(F)F)c3F)C(=O)C2(C)C)cc1` [Example 3, methyl 3-(4-(3-(4-cyano-2-fluoro-3-(trifluoromethyl)phenyl)-5,5-dimethyl-4-oxo-2-thioxoimidazolidin-1-yl)phenyl)propanoate], the IC50 amounted to 7.83 µM.
Same read-out and setting: the result for `CNC(=O)CCCc1ccc(N2C(=S)N(c3ccc(C#N)c(C(F)(F)F)c3F)C(=O)C2(C)C)cn1` [Example 57, 4-{5-[3-(4-Cyano-2-fluoro-3-trifluoromethyl-phenyl)-5,5-dimethyl-4-oxo-2-thioxo-imidazolidin-1-yl]-pyridin-2-yl}-N-methyl-butyramide] reads 1.91 µM; that for `CNC(=O)CCOc1ccc(N2C(=S)N(c3ccc(C#N)c(Cl)c3F)C(=O)C2(C)C)cc1` [Example 16, 3-(4-(3-(3-chloro-4-cyano-2-fluorophenyl)-5,5-dimethyl-4-oxo-2-thioxoimidazolidin-1-yl)phenoxy)-N-methylpropanamide], 0.58 µM.

Staying with this experiment, now noted: Homo sapiens; LNCaP cells; read-out: IC50 of inhibition of PSA production in LNCaP cells.
In the case of `CC(O)(CS(=O)(=O)c1ccc(F)cc1)C(=O)Nc1ccc(C#N)c(C(F)(F)F)c1` (stereo not shown) [Bicalutamide, reference compound], the IC50 was 3.1 µM.

Staying with this experiment, now noted: read-out: LNCAP IC50; inhibition of PSA production, LNCaP cells, R1881 1 ng/ml, three days, seven point assay.
For the compound `CC1(C)C(=O)N(c2ccc(C#N)c(Cl)c2F)C(=S)N1c1ccc(CCCC#N)cc1` [Example 59, 2-chloro-4-(3-(4-(3-cyanopropyl)phenyl)-4,4-dimethyl-5-oxo-2-thioxoimidazolidin-1-yl)-3-fluorobenzonitrile], the IC50 stood at 0.48 µM.
